{"source": "patent US4622317A", "about": "“Treatment of skin over androgenicity using compositions containing pregnenolone” (priority 1985, dated 1986)", "key": {"[1]": {"tested_on": "flank organ of female hamsters", "conditions": "topical, 5 days/week for 2 weeks; cited from earlier work"}, "[2]": {"tested_on": "skin / body of acne patients", "conditions": "cited from earlier work; for skin irritation and peeling: topical application"}, "[3]": {"tested_on": "3βHSD (female hamster flank organs)", "assay": "in vivo inhibition of conversion of 1,2-^3 H-DHA to metabolites in flank organs of female hamsters", "set-up": "species or system female Syrian Golden Hamster", "conditions": "topical 1200 μg/0.1 ml acetone to each flank organ for 3 days", "source_text": "(§1) The effects of hormones and hormonally active substances on sebaceous glands can also be evaluated using the Syrian hamster flank organs as an animal model. The results of experiments using hamsters are valuable inasmuch as they can provide in vivo confirmation of the in vitro experiments like those described above using rat preputial gland. The flank organs, also called the costovertebral spot or the costovertebral organ, are sebaceous structures located on each flank of the animal. Like the sebaceous glands of the human and the preputial gland of the rat they are androgen dependent (Voigt and Hsia, 1973; Gomez and Frost, 1969; Frost and Gomez, 1973).\nHamster flank organs were accordingly used to test in vivo the androgenic inhibitory properties of pregnenolone.\nFemale Syrian Golden Hamsters were used in this experiment. […]\nOn the afternoon of day 3, an intracardial injection of 1,2-^3 H-DHA (5μCi/0.1 ml saline buffer solution) was given to both experimental groups anesthetized with ether. […] Each organ was then placed in a 16 mm×150 mm test tube containing methanol and was homogenized, extracted and analyzed for steroid metabolites by separating the metabolites using thin layer chromatography as described above, scraping the thus separated metabolites from the thin layer plates, and quantitating using a scintillation counter. […]\nResults are shown in FIG. 2 expressed as DPM/mg tissue."}, "[4]": {"assay": "solubility of pregnenolone", "type": "physicochemical"}, "[5]": {"conditions": "background statement; cited from earlier work"}, "acne vulgaris": {"tested_on": "acne vulgaris", "type": "in vivo, human", "description": "The following experiment was conducted and is a typical trial. In a double-blind clinical trial 23 patients with acne vulgaris volunteered to participate. Fifteen patients (11 females and 4 males) were given a 1% solution of pregnenolone dissolved in isopropanol containing 1% glycerol, and 8 patients (5 females and 3 males) were given a 1% solution of glycerol in isopropanol. Neither the patients nor the attending dermatologist knew whether or not the dispensed solution contained pregnenolone. The patients were instructed to stop using their previous medications for two weeks and then to apply the given solution to their faces twice daily. They were reexamined biweekly."}, "[6]": {"tested_on": "3β-hydroxysteroid dehydrogenase Δ^4-5 -isomerase (3βHSD)", "assay": "in vitro inhibition of 3βHSD conversion of DHA in rat preputial gland homogenate", "type": "biochemical, rat (female Sprague-Dawley)", "conditions": "rat preputial gland homogenate (2 mg protein), 1,2-^3 H-DHA + 100 nmoles DHA, 37° C.; four separate incubations; inhibitor concentration not given", "description": "To assess the androgen inhibiting activity of pregnenolone, rat preputial gland was employed to investigate the in vitro androgenic action of DHA. […] A pair of the glands are situated in the prepuce of the rat of either sex weighing between 125-200 mg in an average 200 g rat, being slightly larger in the male animal. The animals employed were female Sprague-Dawley rats, 10-12 weeks old and weighing 225-300 g.\nThe experimental format, stated broadly, was to excise preputial glands from rats and prepare a homogenate therefrom. […] The metabolites were quantitated by removal from the thin layer plate and counting in a scintillation counter. By determining the extent of metabolite formation, the extent of inhibition of 3βHSD could be correspondingly determined. […]\nExperiments were initially conducted to ensure that DHA and its metabolites could be separated chromatographically. […] The position of the steroid can be readily traced with this method. […] Elution and quantitative evaluation of steroids can be effected after removal of the iodine. […] For quantitation the plates were then scraped in 1 cm sections for radioassay of ^3 H in a Packard Tri-Carb liquid scintillation counter. Silica gel H blanks and ^3 H-standards (Packard Instrument Co.) were also counted. […]"}, "[7]": {"tested_on": "female hamster flank organs", "assay": "stimulation of female hamster flank organs by topical DHA", "type": "in vivo", "conditions": "12 μg, 60 μg, 120 μg to right side, 7 days/week for 6 weeks, female hamsters", "source_text": "as §1\nThe organ in the mature male hamster measures approximately 8 mm in diameter, is heavily pigmented and is covered with coarse dark hairs (Voigt and Hsia, 1973). The organ of the female animal is undeveloped, measuring about 2 mm in diameter, lightly pigmented, without dark hairs, and is at times difficult to see. The anatomical and histological changes in this organ in response to androgens have been described by Hamilton and Montagna (1950).\nBefore testing the anti-androgenic properties of pregnenolone on hamster flank organs and relying on the results, a centrally important question therefore needed to be answered--Could DHA be shown to stimulate growth in the flank organs? […]"}, "skin": {"tested_on": "skin", "conditions": "studies by the inventor and other laboratories; cited from earlier work"}, "[8]": {"conditions": "1% pregnenolone in isopropanol containing 1% glycerol, twice daily, twelve weeks, 4 of 15 patients"}}}
{"smiles": "C[C@]12CCC(=O)C[C@@H]1CC[C@@H]1[C@@H]2CC[C@]2(C)[C@@H](O)CC[C@@H]12", "note": "[DHT, dihydrotestosterone]", "values": [{"measurement": "sebaceous gland growth and pigmentation of flank organ", "setting": "[1]", "value": "unilateral stimulation of sebaceous gland growth and pigmentation"}]}
{"smiles": "CC1=C(/C=C/C(C)=C/C=C/C(C)=C/C(=O)O)C(C)(C)CCC1", "note": "[retinoic acid]", "values": [{"measurement": "skin irritation and peeling", "setting": "[2]", "value": "irritates the skin and causes the skin to peel"}]}
{"smiles": "C[C@]12CC[C@H](O)C[C@@H]1CC[C@@H]1[C@@H]2CC[C@]2(C)C(=O)CC[C@@H]12", "note": "[epiandrosterone]", "values": [{"measurement": "sebaceous gland growth and pigmentation of flank organ", "setting": "[1]", "value": "did not cause flank organ growth or increased pigmentation"}]}
{"smiles": "C[C@]12CCC(=O)C=C1CC[C@@H]1[C@@H]2CC[C@@]2(C)[C@H]1CC[C@]2(C)O", "note": "[methyltestosterone]", "values": [{"measurement": "sebaceous gland growth and pigmentation of flank organ", "setting": "[1]", "value": "unilateral stimulation of sebaceous gland growth and pigmentation"}]}
{"smiles": "C[C@]12CC[C@H]3[C@@H](CCC4=CC(=O)CC[C@@]43C)[C@@H]1CC[C@@H]2O", "note": "[testosterone]", "values": [{"measurement": "sebaceous gland growth and pigmentation of flank organ", "setting": "[1]", "value": "unilateral stimulation of sebaceous gland growth and pigmentation"}]}
{"smiles": "C[C@]12CC[C@@H](O)C[C@@H]1CC[C@@H]1[C@@H]2CC[C@]2(C)C(=O)CC[C@@H]12", "note": "[androsterone]", "values": [{"measurement": "sebaceous gland growth and pigmentation of flank organ", "setting": "[1]", "value": "did not cause flank organ growth or increased pigmentation"}]}
{"smiles": "CC(=O)[C@H]1CC[C@H]2[C@@H]3CCC4=CC(=O)CC[C@]4(C)[C@H]3CC[C@]12C", "note": "[progesterone]", "values": [{"measurement": "sebaceous gland growth and pigmentation of flank organ", "setting": "[1]", "value": "did not cause flank organ growth or increased pigmentation"}]}
{"smiles": "CC1=C(/C=C/C(C)=C/C=C/C(C)=C\\C(=O)O)C(C)(C)CCC1", "note": "[Accutane, 13-Cis retinoic acid]", "values": [{"measurement": "blood lipids and liver toxicity", "setting": "[2]; internal use", "value": "alters blood lipids and causes liver toxicity"}]}
{"smiles": "C[C@]12CCC(=O)C=C1CC[C@@H]1[C@@H]2CC[C@]2(C)C(=O)CC[C@@H]12", "note": "[androstenedione, Δ^4 -androstenedione]", "values": [{"measurement": "sebaceous gland growth and pigmentation of flank organ", "setting": "[1]", "value": "unilateral stimulation of sebaceous gland growth and pigmentation"}]}
{"smiles": "CC(=O)[C@H]1CC[C@H]2[C@@H]3CC=C4C[C@@H](O)CC[C@]4(C)[C@H]3CC[C@]12C", "note": "[pregnenolone, Δ^5-pregnene-3β-ol-20-one]", "values": [{"measurement": "total metabolites converted from 1,2-^3 H-DHA, treated versus control", "setting": "[3]; DHA-stimulated, 1 hour after intracardial ^3 H-DHA (5 μCi)", "value": "Significant differences (P<0.01)"}, {"measurement": "formation of testosterone, DHT and androstanediol, control versus treated", "setting": "[3]; DPM/mg tissue in FIG. 2", "value": "Control hamsters, not treated with inhibitor, show greater formation of testosterone, DHT and androstanediol"}, {"measurement": "solubility in alcohols", "setting": "[4]; alcohols, such as isopropanol or mixtures with longer (C4 -C10) alkane or alkene chains", "value": "soluble"}, {"measurement": "solubility in water", "setting": "[4]; water", "value": "insoluble in water"}, {"measurement": "androgenic / hormonal activity", "setting": "[5]", "value": "no known hormonal activity of its own"}, {"measurement": "patients with reduction of oiliness", "setting": "acne vulgaris; 1% pregnenolone in isopropanol containing 1% glycerol, twice daily, twelve weeks, 2 of 15 patients", "value": 13, "unit": "%"}, {"measurement": "patients with no change in lesions or oiliness", "setting": "acne vulgaris; [8]", "value": 26, "unit": "%"}, {"measurement": "patients with slight reduction of the number of lesions and a reduction in the oiliness of the skin", "setting": "acne vulgaris; [8]", "value": 26, "unit": "%"}, {"measurement": "patients with definite improvement, with reduction in the size and number of lesions", "setting": "acne vulgaris; 1% pregnenolone in isopropanol containing 1% glycerol, twice daily, twelve weeks, 5 of 15 patients", "value": 33, "unit": "%"}, {"measurement": "beneficial effect in acne; prevention of new lesions", "setting": "acne vulgaris; conclusion of the trial, continued use", "value": "beneficial effect in the treatment of acne, and that continued use of pregnenolone prevents the development of new lesions"}, {"measurement": "irritation or discomfort caused by topical application", "setting": "acne vulgaris; human, in vivo", "value": "no complaint of irritation or discomfort"}, {"measurement": "efficacy and acceptability compared with previous medications (patients' claims)", "setting": "acne vulgaris; patients who had used other medications previously", "value": "more effective and more acceptable"}, {"measurement": "inhibition of 3βHSD for DHA (percentage of total Δ^4 -3-keto product formed in absence of inhibitor)", "setting": "[6]", "value": "91-92%"}]}
{"smiles": "C[C@]12CC[C@H](O)CC1=CC[C@@H]1[C@@H]2CC[C@]2(C)C(=O)CC[C@@H]12", "note": "[DHA, dehydroepiandrosterone]", "values": [{"measurement": "stimulation of flank organs", "setting": "[7]", "value": "not only a local stimulation, but stimulation of both flank organs, hence systemic stimulation"}, {"measurement": "androgenic / hormonal activity", "setting": "[5]", "value": "only weak androgenic activity"}, {"measurement": "metabolism in the skin", "setting": "skin", "value": "readily metabolized in the skin to form potent androgenic steroids"}]}
{"smiles": "O=C(OOC(=O)c1ccccc1)c1ccccc1", "note": "[benzoyl peroxide]", "values": [{"measurement": "skin irritation and peeling", "setting": "[2]", "value": "irritates the skin and causes the skin to peel"}]}
